Source: publication PMC8318231, “Rate-of-Kill (RoK) assays to triage large compound sets for Chagas disease drug discovery: Application to GSK Chagas Box” (PLoS Neglected Tropical Diseases, 2021)

Tests used:
[1] = tested on: T. cruzi intracellular amastigotes in H9c2 cells; experiment: Rate-of-Kill (RoK) high-content imaging assay, amastigotes per cell (AM/CELL) and curve descriptors; type: cell-based, Trypanosoma cruzi; set-up: key to ME_24h / ME_48h / ME_72h: % reduction in parasite burden (cidal response); t50pct_MCC50 / t50pct_Cmax: unit not given here; conditions: for ME_24h: 24h; for ME_48h: 48h; for ME_72h: 72h; for AM/CELL NORM: sheet figure 4 A; for t50%_Cmax / tlag_Cmax / t50pct_Cmax: at Cmax; for ME_24h (%): maximum effect at 24 h; for ME_24h (%) / ME_48h (%) / ME_72h (%): RoK assay; for ME_48h (%): maximum effect at 48 h; for ME_72h (%): maximum effect at 72 h; for ME 24h (maximum effect at 24 hours, intracellular amastigotes): maximum percentage of parasite burden reduction reached by any concentration
How it was run: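 Readouts at each time point are amastigotes per cell and host nuclei count (cytotoxicity), from DRAQ5 high-content imaging. Infection: trypomastigotes on H9c2 at MOI 8 for 18 h. Dosing was 5 μM single point or 11 points, 1/3 steps from 50 μM. Effect scaled between 4 h infected and uninfected controls.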

TcCYP51 = conditions: formerly reported; cited from earlier work
[2] = tested on: T. cruzi Tulahuen trypomastigotes; experiment: T. cruzi trypomastigote assay (Cell Titer-Glo viability, ATP luminescence); type: cell-based, Trypanosoma cruzi; conditions: for Trypomastigotes pIC50 48 hours: 48 hours incubation; for Trypomastigotes pIC50 48 hours / Trypomastigotes pIC50 72 hours: pIC50 = -log10 IC50 in molar units; for Trypomastigotes pIC50 72 hours: 72 hours incubation; for 72 pIC50 (trypomastigotes, raw data of Fig 1D): 72 hours, plotted values, censored values given without sign; for 48 pIC50 / 72 pIC50: trypomastigote assay; for 48 pIC50: 48 h; for 72 pIC50: 72 h
How it was run: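 Compounds were tested in dose response or once at a final 5 μM against 5 × 10^4 trypomastigotes per well (DMEM, 2% FBS), collected on days 5–8 from LLC-MK2 infected cultures. ATP luminescence via CellTiter-Glo reports live parasites; DMSO defines 0% and cell-free wells 100% effect.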

| Structure (SMILES) | ME_24h ([1]; figure 5) | ME_48h ([1]; figure 5) | ME_72h ([1]; figure 5) | MCCE ([1]; RoK curve descriptor) | AM/CELL NORM ([1]; Time 4) | AM/CELL NORM ([1]; Time 24) | AM/CELL NORM ([1]; Time 48) | AM/CELL NORM ([1]; Time 72) | tlag_Cmax [1] | t50pct_Cmax ([1]; figure 5) | tlag_Cmax ([1]; figure 5) | t50pct_MCC50 ([1]; at MCC50, figure 5) | tlag_MCC50 ([1]; at MCC50, figure 5) | MCCE ([1]; figure 5) | ME_24h (%) [1] | ME_48h (%) [1] | ME_72h (%) [1] | ME 24h (maximum effect at 24 hours, intracellular amastigotes) [1] | CYP51 pIC50 (TcCYP51) | Trypomastigotes pIC50 48 hours [2] | also measured |
| --- | --- | --- | --- | --- | --- | --- | --- | --- | --- | --- | --- | --- | --- | --- | --- | --- | --- | --- | --- | --- | --- |
| CCCCn1nnnc1CSc1nc(C)cc(C)c1C#N [TCMDC-143315] | 53.1743 | 83.3988 | 72.5932 | 0.2 µM | 13.5421 | 53.1743 | 83.3988 | 54.3555 | 4.0 h | 24 | 4 | 48 | 4 | 0.2058 | 53.2% | 83.4% | 72.6% | 53.1743% | 4.3 | 6.6 | MCC50 ([1]; RoK curve descriptor): 0.6 µM; t50%_Cmax [1]: 24.0 h; t50%_MCC50 ([1]; at MCC50): 48.0 h; tlag_MCC50 ([1]; at MCC50): 4.0 h; MCC50 ([1]; figure 5, in µM): 0.6173; Trypomastigotes pIC50 72 hours [2]: 6.8 |
| O=C(CSc1ccc(F)cc1)N[C@@H](Cc1cnc[nH]1)C(=O)NCCc1ccccc1.O=C(O)C(F)(F)F [TCMDC-143317] | -217.337 | -137.825 | 44.5659 | 1.2 µM | -0.3431 | -195.022 | -169.506 | 59.3586 | 24.0 h | 72 | 24 | 72 | 48 | 1.235 | -217.3% | -137.8% | 44.6% | -157.067% | 7.1 | < 4.3 | MCC50 ([1]; RoK curve descriptor): 50.0 µM; t50%_Cmax [1]: 72.0 h; t50%_MCC50 ([1]; at MCC50): 72.0 h; tlag_MCC50 ([1]; at MCC50): 24.0 h; MCC50 ([1]; figure 5): 50 µM; Trypomastigotes pIC50 72 hours [2]: < 4.3; 72 pIC50 (trypomastigotes, raw data of Fig 1D) [2]: < 4.3; 48 pIC50 ([2]; figure 1A): < 4.3; 72 pIC50 ([2]; figure 1A): < 4.3; 72 pIC50 ([2]; figure 1B): < 4.3 |
| CCOc1cnn(C)c(=O)c1Nc1ccc(C(=O)NCc2ccc(F)cc2)cc1 [TCMDC-143319] | -74.4049 | -82.6884 | 13.1125 | 0.2 µM | -4.52 | -105.903 | -82.6884 | -13.3312 | 24.0 h | 72 | 24 | 72 | 72 | 0.2058 | -74.4% | -82.7% | 13.1% | -74.4049% | 5.4 | < 4.3 | MCC50 ([1]; figure 5): 50 µM; Trypomastigotes pIC50 72 hours [2]: < 4.3; 72 pIC50 (trypomastigotes, raw data of Fig 1D) [2]: < 4.3; 48 pIC50 ([2]; figure 1A): < 4.3; 72 pIC50 ([2]; figure 1A): < 4.3; 72 pIC50 ([2]; figure 1B): < 4.3 |
| O=C(NC1C(=O)N(c2ccccc2)C1c1cccnc1)c1ccc(Cl)s1 (stereo not drawn) [TCMDC-143324] | -26.8888 | -112.607 | -10.0757 | 0.07 µM | -16.6269 | -26.8888 | -112.607 | -155.468 | 72.0 h | 72 | 72 | 72 | 72 | 0.06859 | -26.9% | -112.6% | -10.1% | -26.8888% | 6.7 | < 4.3 | MCC50 ([1]; figure 5): 50 µM; Trypomastigotes pIC50 72 hours [2]: < 4.3; 72 pIC50 (trypomastigotes, raw data of Fig 1D) [2]: < 4.3; 48 pIC50 ([2]; figure 1A): < 4.3; 72 pIC50 ([2]; figure 1A): < 4.3; 72 pIC50 ([2]; figure 1B): < 4.3 |
| CCn1nccc1CN(C)C(=O)C=Cc1ccc(Cl)cc1 [TCMDC-143325] | -25.9716 | -135.889 | 23.6762 | 0.6 µM | 13.1334 | -25.9716 | -135.889 | 23.6762 | 48.0 h | 72 | 48 | 72 | 72 | 0.6173 | -26.0% | -135.9% | 23.7% | -25.9716% | 6.5 | < 4.3 | MCC50 ([1]; figure 5): 50 µM; Trypomastigotes pIC50 72 hours [2]: < 4.3; 72 pIC50 (trypomastigotes, raw data of Fig 1D) [2]: < 4.3; 48 pIC50 ([2]; figure 1A): < 4.3; 72 pIC50 ([2]; figure 1A): < 4.3; 72 pIC50 ([2]; figure 1B): < 4.3 |
| Cc1[nH]nc2c1C(c1ccc(OCc3ccccc3F)cc1)SCC(=O)N2 (stereo not drawn) [TCMDC-143328] | 2.825 | -7.539 | -52.7101 | 5.6 µM | 25.0577 | -15.4729 | -7.539 | -52.7101 | 24.0 h | 72 | 24 | 72 | 72 | 5.556 | 2.8% | -7.5% | -52.7% | 2.825% | < 4 | 5.1 | MCC50 ([1]; figure 5): 50 µM; Trypomastigotes pIC50 72 hours [2]: 5.1; 72 pIC50 (trypomastigotes, raw data of Fig 1D) [2]: 5.1; 48 pIC50 ([2]; figure 1A): 5.1; 72 pIC50 ([2]; figure 1A): 5.1; 72 pIC50 ([2]; figure 1B): 5.1 |
| CCCN(Cc1ccc(OC)c(OC)c1)Cc1cc(=O)c2c(C)cc(C)cc2[nH]1 [TCMDC-143331] | 53.5839 | 70.4309 | 85.455 | 1.9 µM | 14.9494 | 52.9561 | 75.3164 | 72.8804 | 4.0 h | 24 | 4 | 48 | 4 | 1.852 | 53.6% | 70.4% | 85.5% | 54.2116% | 4.5 | 5.4 | ME (maximum effect) in RoK assay (in words) [1]: high values in ME at the different times; tlag (in words) [1]: short tlag; MCC50 ([1]; RoK curve descriptor): 27.8 µM; t50%_Cmax [1]: 24.0 h; t50%_MCC50 ([1]; at MCC50): 48.0 h; tlag_MCC50 ([1]; at MCC50): 4.0 h; MCC50 ([1]; figure 5, in µM): 27.7778; activity in trypomastigotes assay (in words) ([2]; 48 and 72 hours): active; Trypomastigotes pIC50 72 hours [2]: 5.6 |
| CC(C)(C)C(Cn1ccnc1)NC(=O)c1ccc2nc(C3CC3)oc2c1 (stereo not drawn) [TCMDC-143336] | -64.3403 | -179.917 | -53.9696 | 0.2 µM | 3.062 | -93.0977 | -442.656 | -139.753 | 48.0 h | 72 | 48 | 72 | 72 | 0.2058 | -64.3% | -179.9% | -54.0% | -64.3403% | 7 | 5 | MCC50 ([1]; figure 5): 50 µM; Trypomastigotes pIC50 72 hours [2]: < 4.3 |
| c1ccc(CCNCc2cncc3nc(-c4cnccn4)n(C4CCCCC4)c23)cc1 [TCMDC-143346] | -174.15 | -60.952 | 17.2662 | 0.2 µM | -7.276 | -174.15 | -60.952 | 6.4629 | 24.0 h | 72 | 24 | 72 | 72 | 0.2058 | -174.2% | -61.0% | 17.3% | -174.15% | 7 | < 4.3 | MCC50 ([1]; figure 5): 50 µM; Trypomastigotes pIC50 72 hours [2]: < 4.3; 72 pIC50 (trypomastigotes, raw data of Fig 1D) [2]: < 4.3; 48 pIC50 ([2]; figure 1A): < 4.3; 72 pIC50 ([2]; figure 1A): < 4.3; 72 pIC50 ([2]; figure 1B): < 4.3 |
